# According to patent US4496543A, “Polypeptides, processes for their production, pharmaceutical compositions comprising said polypeptides and their use” (Sandoz Ltd., priority 1982, dated 1985):
# Test system: serum GH-level
# Test: TEST I: depression of serum GH-levels in the rat (GH-secretion inhibiting activity)
# Type: in vivo
# Conditions: male rats under Nembutal narcosis, s.c., activity at 60 minutes, serum GH by radio-immuno-assay
# Method: This test (TEST I) is carried out employing male rats under Nembutal narcosis. The test-substance is administered at varying, logarithmically staggered doses employing at least 4 rats per dose. The rats are decapitated 60 minutes after administration, the blood is collected and the serum GH-level determined by radio-immuno-assay.
# The above test may be adapted to determine effectiveness over prolonged periods of time, e.g. by decapitating 6 or 18 hours after administration. "Polypeptides of Type-T" as hereinbefore defined may be shown to be active in the above described test method when administered at dosages in the aforesaid range, over longer periods of time, e.g. up to 18 hours.
structure (smiles),measurement,value
C[C@H](N)C(=O)NCC(=O)N[C@H]1CSSC[C@@H](C(=O)O)NC(=O)[C@H](CO)NC(=O)[C@H]([C@@H](C)O)NC(=O)[C@H](Cc2ccccc2)NC(=O)[C@H]([C@@H](C)O)NC(=O)[C@H](CCCCN)NC(=O)[C@H](Cc2c[nH]c3ccccc23)NC(=O)[C@H](Cc2ccccc2)NC(=O)[C@H](Cc2ccccc2)NC(=O)[C@H](CC(N)=O)NC(=O)[C@H](CCCCN)NC1=O [somatostatin],ID50 in TEST I (amount of compound required to effect 50% reduction of the GH-level compared with untreated controls),0.093 mg/kg
